The series is described as follows: photoluminescence quantum yield (fraction); solvent given as SMILES.

In the case of `O=C1c2ccc3c4c(Oc5ccccc5)cc5c6c(ccc(c7c(Oc8ccccc8)cc(c2c37)C(=O)N1c1ccc(O)cc1)c64)C(=O)N(c1ccc(O)cc1)C5=O`, the photoluminescence quantum yield reads like this: (in C1CCOC1) 0.3; (in CN1CCCC1=O) 0.2; (in CN(C)C=O) 0.01.

As to `CCc1c(C)[nH]c(C2=[N+]3C(=Cc4c(C)c(CC)c(C)n4[B-]3(F)F)c3ccccc32)c1C`, the photoluminescence quantum yield is, setting by setting: (in C1CCOC1) 0.09; (in CC#N) 0.03; (in CCCCCC) 0.86; (in CO) 0.04; (in Cc1ccccc1) 0.75; (in ClCCl) 0.73.

For the compound `CN(C)c1cccc2c1-c1ccccc1C2=O`, the photoluminescence quantum yield came to 0.075 (in C1CCCCC1), 0.0075 (in CC#N), 0.00027 (in CCO) and 0.073 (in c1ccccc1).

Regarding `NS(=O)(=O)c1ccc(N2N=C(c3ccc(O)cc3)CC2c2ccc(Br)cc2)cc1` (stereo not drawn), the photoluminescence quantum yield (in C1CCOC1) was determined as 0.7; the photoluminescence quantum yield (in C1COCCO1) amounted to 0.75; the photoluminescence quantum yield (in CC#N) was determined as 0.65; the photoluminescence quantum yield (in CC(C)O) was 0.57; the photoluminescence quantum yield (in CCO) was 0.5; the photoluminescence quantum yield (in CCOC(C)=O) amounted to 0.75. Besides, the photoluminescence quantum yield stood at 0.68 (in CN(C)C=O), 0.38 (in CO), 0.69 (in CS(C)=O) and 0.56 (in O).

Under “in C1CCOC1”, `C1=[N+]2N=C(c3ccccc3)O[B-]2(c2ccc([B-]34OC(c5ccccc5)=N[N+]3=Cc3c(ccc5ccccc35)O4)cc2)Oc2ccc3ccccc3c21` (stereo not drawn) came in with a photoluminescence quantum yield of 0.002.

Consider `CN(C)CCNCc1c2ccccc2cc2ccccc12`, for which the photoluminescence quantum yield runs as follows: (in C1CCCCC1) 0.0769; (in C1CCOC1) 0.00216; (in CC#N) 0.00137; (in CC(C)=O) 0.0234; (in CCO) 0.0179; (in CN(C)C=O) 0.00064. Also, the photoluminescence quantum yield runs as follows: (in CO) 0.0124; (in ClC(Cl)Cl) 0.0315.

In the case of `C(#Cc1nc2ccccc2s1)c1ccc(N(c2ccccc2)c2ccccc2)cc1`, the photoluminescence quantum yield (in Cc1ccccc1) came out at 0.62.

As for `COC(=O)C[C@H](NC(=O)[C@H](Cc1c[nH]c2ccccc12)NC(=O)OC(C)(C)C)C(=O)OC`, the photoluminescence quantum yield was 0.36 (in CC#N), 0.39 (in CCOC(C)=O) and 0.27 (in CO).

With `CC(C)(C)c1ccc(C(C)(C)C)c(N2C(=O)c3cccc4c(-c5ccc(-c6ccc([N+](=O)[O-])cc6)s5)ccc(c34)C2=O)c1`, the photoluminescence quantum yield (in CO) amounted to 0.03, the photoluminescence quantum yield (in CS(C)=O) amounted to 0.17 and the photoluminescence quantum yield (in Cc1ccccc1) was 0.07.

On to `CCCCN(CCCC)c1ccc(/C=C/c2ccc(-c3ccc(/C=C/c4ccc(N(CCCC)CCCC)cc4)cc3)cc2)cc1`, for which the photoluminescence quantum yield is, setting by setting: (in CS(C)=O) 0.89; (in Cc1ccccc1) 0.81.

Regarding `CCOC(=O)C(C(=O)OCC)C1=[N+]2C(=C(c3ccc(C)cc3)c3ccc(C(C(=O)OCC)C(=O)OCC)n3[B-]2(F)F)C=C1`, the photoluminescence quantum yield turned out to be 0.62 (in C1CCCCC1); 0.46 (in C1CCOC1); 0.38 (in CCOC(C)=O); 0.35 (in CO); 0.89 (in Cc1ccccc1); 0.59 (in ClC(Cl)Cl).

Consider `Cc1nc2cccc(-c3nc4ccc(Cl)cc4o3)c2c(=O)[nH]1`, for which, under “in CN(C)C=O”, the photoluminescence quantum yield is 0.275.

In the case of `c1csc(-c2ccc(-c3cccs3)s2)c1`, the photoluminescence quantum yield by setting is: (in CC#N) 0.09; (in ClCCl) 0.05.

For `N#Cc1ccc(-c2cn3cc(C#N)c[n+]3[n-]2)cc1`, the photoluminescence quantum yield (in ClCCl) came to 0.45.

Consider `Fc1ccc(N(c2ccc(F)cc2)c2ccc3c4cccc5c(N(c6ccc(F)cc6)c6ccc(F)cc6)ccc(c6cccc2c63)c54)cc1`, for which, where the note is “in ClCCl”, the photoluminescence quantum yield is 0.64.

Where the note is “in CCO”, `Cc1c(COC(=O)c2ccc(I)cc2)n2c(OCC(=O)c3ccc(I)cc3)c(C)c(=O)n2c1=O` came in with a photoluminescence quantum yield of 0.842.

The compound `O=C1OC(=O)C2=C1S[C@]13C2=C[C@H](c2ccccc21)c1ccccc13` displayed a photoluminescence quantum yield (in ClCCl) of 0.95.

`N#C/C(=N/Nc1ccc(C#N)cc1)c1nc(-c2ccccc2)cs1`: the photoluminescence quantum yield reads like this: (in CC#N) 0; (in CCO) 0.0001; (in CN(C)C=O) 0; (in Cc1ccccc1) 0.0001; (in ClCCl) 0.0001.

For the compound `O=c1c2ccc(-c3ccc(N(c4ccccc4)c4ccccc4)cc3)cc2sc2cc(-c3ccc(N(c4ccccc4)c4ccccc4)cc3)ccc12`, the photoluminescence quantum yield (in c1ccc2c(c1)c1ccccc1n2-c1ccc(-c2ccc(-n3c4ccccc4c4ccccc43)cc2)cc1) was found to be 0.35.

Turning to `Cc1ccc(-c2c3ccc([nH]3)c3nc(c(-c4ccc([N+](=O)[O-])cc4)c4ccc([nH]4)c4ccc([nH]4)c(-c4ccc(C)cc4)c4ccc2o4)C=C3)cc1`, the photoluminescence quantum yield runs as follows: (in C1CCOC1) 0.018; (in Cc1ccccc1) 0.083; (in c1ccccc1) 0.098.

The compound `F[B-]1(F)n2c(cc3ccc4ccccc4c32)C(c2ccc(I)cc2)=C2C=C3CCc4ccccc4C3=[N+]21` returned a photoluminescence quantum yield (in ClC(Cl)Cl) of 0.17.

In turn, `c1ccc(-c2cc3cccc4cc(-c5ccccc5)c5cc(-c6cc7[b-]8c(c6)c(-c6ccccc6)cc6cccc(cc7-c7ccccc7)[n+]86)cc2[b-]5[n+]34)cc1` gave a photoluminescence quantum yield (in C1CCCCC1) of 0.12.

Turning to `F[B-]1(F)n2c(-c3cccs3)cc(-c3ccccc3)c2N=C2C(c3ccccc3)=CC(c3cccs3)=[N+]21`, the photoluminescence quantum yield is, setting by setting: (in CC#N) 0.46; (in ClCCl) 0.44.

With `COc1ccc2c(c1)CCC1=C(C#Cc3ccc(Cl)cc3)O[B-](F)(F)[O+]=C12`, the photoluminescence quantum yield (in ClCCl) came out at 0.72.

Consider `Cc1cc(C)c(B2c3cc(C(C)(C)C)cc4ccc5ccc6cc(C(C)(C)C)cc2c6c5c34)c(C)c1`, for which, under “in C1CCCCC1”, the photoluminescence quantum yield came out at 0.79.

With `CCOC(=O)c1cc(C)n2nc(-c3ccccc3)ccc12`, the photoluminescence quantum yield (in CCCCCC) was 0.434.

For the compound `COC(=O)C(NC(=O)OC(C)(C)C)c1ccc2oc(-c3ccc(OC(=O)c4ccccc4)cc3O)nc2c1` (stereo not drawn), the photoluminescence quantum yield was 0.03 (in CC1CCCCC1), 0.01 (in CC#N) and 0.003 (in CO).

Regarding `CCC1=C(C)C2=Cc3c4ccccc4c4n3[B-](c3cc[n+](C)cc3)(Oc3ccccc3-4)[N+]2=C1C=Cc1ccc(OC)cc1` (stereo not drawn), the photoluminescence quantum yield was 0.21 (in CO) and 0.26 (in CS(C)=O).

Take `CCCCCCc1ccc(-n2c3c4cccc(OC)c4nc(-c4ccc(OC)cc4)c3c3c2c2c(-c4ccc(OC)cc4)nc4c(OC)cccc4c2n3-c2ccc(CCCCCC)cc2)cc1`: the photoluminescence quantum yield (in ClC(Cl)Cl) stood at 0.042.

For `Cc1ccc(-[c+]2c3ccccc3oc3ccccc32)cc1`, where the note is “in CC#N”, the photoluminescence quantum yield was 0.014.

`CC(=O)[B-]1(C(C)=O)OC(c2ccc3ccccc3c2)=CC(c2ccc3ccccc3c2)=[O+]1`: the photoluminescence quantum yield reads like this: (in CC#N) 0.56; (in ClC(Cl)(Cl)Cl) 0.61.

Turning to `CC1(C)[C@@H]2[C@@H]1[C@]1(c3ccccc3)N=NC2(c2ccccc2)C2C3C=CC(C3)C21` (stereo partly drawn), the photoluminescence quantum yield (in CC#N) stood at 0.08.

On to `C(=C\c1cccnc1)/c1ccc(Nc2ccccc2)cc1`, for which the photoluminescence quantum yield is, setting by setting: (in CC#N) 0.25; (in CCCCCC) 0.37.

As to `COC1(OC)C2(Cl)c3nc4cc(-c5cccs5)ccc4nc3C1(Cl)C1C[C@H]3[C@@H](CC12)C1(Cl)c2nc4ccc(-c5cccs5)cc4nc2C3(Cl)C1(OC)OC` (stereo partly drawn), the photoluminescence quantum yield by setting is: (in CC#N) 0.57; (in CCOC(C)=O) 0.22; (in CO) 0.49; (in Cc1ccccc1) 0.13; (in ClC(Cl)Cl) 0.35; (in ClCCl) 0.33.

In the case of `COc1ccc(C2=[N+]3C(=Nc4c5c6cc(OC)c(OC)c(OC)c6c6cc(C(C)(C)C)ccc6c5c(-c5ccc(OC)cc5)n4[B-]3(F)F)c3c2c2ccc(C(C)(C)C)cc2c2c(OC)c(OC)c(OC)cc32)cc1`, the photoluminescence quantum yield (in Cc1ccccc1) was 0.35.

`O=C(c1ccccc1)c1cc2ccc1CCc1ccc(c(-c3ccc(N(c4ccccc4)c4ccccc4)cc3)c1)CC2` gave a photoluminescence quantum yield (in c1cc(-n2c3ccccc3c3ccccc32)cc(-n2c3ccccc3c3ccccc32)c1) of 0.15.

For `Cc1ccc(/C=C/C(F)(F)F)c(N)c1`, the photoluminescence quantum yield (in C1CCOC1) was 0.62.

Regarding `CCCOc1ccc(/C=C/C=C/C=C/c2ccc([N+](=O)[O-])cc2)cc1`, the photoluminescence quantum yield came out at 0.25 (in CC1CCCCC1), 0.011 (in CC#N), 0.54 (in Cc1ccccc1) and 0.06 (in ClCCl).

With `Cc1ccc(C)n1-c1ccccc1`, the photoluminescence quantum yield turned out to be 0.012 (in CC#N) and 0.005 (in CCCCCC).

`ClP1(Cl)=N[P@@](Cl)(Oc2ccc3ccc4cccc5ccc2c3c45)=N[P@@](Cl)(Oc2ccc3ccc4cccc5ccc2c3c45)=N1` registered a photoluminescence quantum yield (in ClCCl) of 0.7.

Compound `COc1ccc(/C=C/c2cc(/C=C/c3ccc(N(c4ccccc4)c4ccccc4)cc3)nc(/C=C/c3ccc(N(C)C)cc3)n2)cc1` gave a photoluminescence quantum yield (in ClCCl) of 0.02.

With `c1ccc([B-]23NC(C4CCCCC4)=Nc4cccc([n+]42)N=C(C2CCCCC2)N3)cc1`, the photoluminescence quantum yield (in ClCCl) came to 0.1.

In the case of `CN(C)c1ccc2c(c1)C(C)(C)C1=CC(=[N+](C)C)C=CC1=C2C#Cc1ccccc1`, the photoluminescence quantum yield came to 0.148 (in CO) and 0.047 (in O).

On to `CC1(C)c2ccccc2N(c2ccc3c(c2)c2cc(N4c5ccccc5C(C)(C)c5ccccc54)ccc2c2nc(C#N)c(C#N)nc32)c2ccccc21`, for which the photoluminescence quantum yield runs as follows: (in Cc1ccccc1) 0.12; (in O=P(c1ccccc1)(c1ccccc1)c1cccc(-c2cc(-n3c4ccccc4c4ccccc43)cc(-n3c4ccccc4c4ccccc43)c2)n1) 0.33.

As for `c1ccc2nc3c(nc2c1)[nH]c1ccccc13`, the photoluminescence quantum yield came out at 0.04 (in C1COCCO1), 0.05 (in CC#N), 0.02 (in CCCCCCC) and 0.01 (in CCO).

Source of the values: the Deep4Chem optical property database.
